Experiments:
[1] = biological target: p45 v-abl tyrosine kinase; experiment: in-vitro p45 v-abl kinase assay ((Val^5)-Angiotension II phosphorylation); format: biochemical, Abelson murine leukaemia virus; conditions: ATP 50 μM, fixed peptide concentration, 40 ng abl-kinase, pH 8.0, 30° C.; read-out: Inhibition of p45 kinase, IC50 v-abl
Description: p45 v-abl Kinase Purification
The enzyme used in our test was the p45 v-abl tyrosine kinase which represents the catalytic domain of the Abelson tyrosine kinase (isolated from the Abelson murine leukaemia virus). The p45 v-abl kinase was produced and isolated as described by Wang et al. in J. Biol. Chem. 260, 64 (1985) and by Ferguson et al. in J. Biol. Chem. 260, 3652 (1985) and in Biochem. J. 257, 321 (1989).
(Val^5)-Angiotension II phosphorylation was performed by incubation with 40 ng of purified abl-kinase and (γ-^32 p)-ATP, in 50 μl of buffer containing Tris-HCl 25 mM, pH 8.0, MgCl2 10 mM and dithiothreitol 0.1 mM (kinase buffer). The reaction mixture was incubated for the indicated time at 30° C. and the reaction stopped by adding 50 μl of 5% trichloroacetic acid. After a brief incubation on ice, tubes were centrifuged. The supernatants were spotted on phosphocellulose paper squares (Whatman P-81) and washed extensively in acetic acid. The radioactivity bound to dried phosphocellulose squares was measured in a liquid scintillation counter. IC50 values were calculated from triplicated determinations of each experimental point. Each inhibitor was tested at concentrations ranging from […] in the presence of fixed concentrations of peptide (2 Mm) and ATP (50 μM). […]

[2] = tested on: K562 cells; experiment: K562 cell growth inhibition assay; format: cell-based; conditions: human chronic myeloid leukemia K562 cells, 72 h, cell count vs untreated control
Description: K562 Cell Growth Inhibition Assay
K562 cells, a human myelogenous leukemia cell line, were seeded into a 24 wells tissue culture plate (Falcon 3047) (10000/well) in the presence of increasing concentrations of the compounds. After 72 h, cells were harvested and were counted using a cell counter (Coulter Counter-ZM). The percent of inhibition was evaluated in respect to the untreated control cells.
The inhibitory activity data for a representative group of compounds according to the present invention, obtained both in the in-vitro p45 v-abl kinase assay and in the in-vivo human chronic myeloid leukemia K562 cell growth inhibition assay described above, are set out in following Table 1.

Compound	IC50 [1] [nM]	IC50 [2] [µM]
COc1ccc2[nH]cc(C=C3C(=O)Nc4ccc(NC(=O)[C@H](C)NC(=O)[C@@H](N)CCC(=O)O)cc43)c2c1 [FCE 28437, 5-L-glutamyl-L-alanylamino-3-[(5'-methoxy-3'-indolyl)methylene]-2-indolinone]	500	14.8
O=C1Nc2ccc(C(=O)CN3CCCCC3)cc2C1=Cc1c[nH]c2ccccc12 [FCE 28484, 3-(indol-3-ylmethylene)-5-(2-piperidin-1-yl-acetyl)-2-indolinone]	780	4.82

Reference: patent US5849710A, “Substituted indolylmethylene-oxindole analogues as tyrosine kinase inhibitors” (Pharmacia & Upjohn S.p.A., priority 1995, dated 1998)
